Test results from BindingDB's records for doi:10.1210/endo.135.6.7988476 (Mcgill University, 1994).
Bridge positions count the residues as written; N and C are the ends. Square brackets hold non-standard residues; d marks the D form. Peptide text beside a SMILES is read from it. * marks the point of attachment. NH(1-naphthylmethyl) = c1ccc2c(CN*)cccc2c1

Legend:
[1] = biological target: Somatostatin receptor type 1 (Homo sapiens, UniProt P30872)
[2] = biological target: Somatostatin receptor type 4 (Homo sapiens, UniProt P31391)
Sequence of Somatostatin receptor type 4 (P31391 whole entry): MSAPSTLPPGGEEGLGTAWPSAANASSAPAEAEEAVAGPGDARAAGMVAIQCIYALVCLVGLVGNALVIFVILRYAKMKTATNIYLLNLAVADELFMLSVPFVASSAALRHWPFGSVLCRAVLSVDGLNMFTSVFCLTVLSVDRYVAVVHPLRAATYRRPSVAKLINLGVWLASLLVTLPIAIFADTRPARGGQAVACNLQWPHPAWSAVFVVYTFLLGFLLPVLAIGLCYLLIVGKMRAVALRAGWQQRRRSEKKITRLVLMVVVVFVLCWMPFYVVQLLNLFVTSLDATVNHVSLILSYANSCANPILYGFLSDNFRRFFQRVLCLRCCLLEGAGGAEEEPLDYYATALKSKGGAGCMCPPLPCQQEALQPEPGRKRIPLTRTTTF

[3] = biological target: Somatostatin receptor type 2 (Homo sapiens, UniProt P30874)
Sequence of Somatostatin receptor type 2 (P30874 whole entry): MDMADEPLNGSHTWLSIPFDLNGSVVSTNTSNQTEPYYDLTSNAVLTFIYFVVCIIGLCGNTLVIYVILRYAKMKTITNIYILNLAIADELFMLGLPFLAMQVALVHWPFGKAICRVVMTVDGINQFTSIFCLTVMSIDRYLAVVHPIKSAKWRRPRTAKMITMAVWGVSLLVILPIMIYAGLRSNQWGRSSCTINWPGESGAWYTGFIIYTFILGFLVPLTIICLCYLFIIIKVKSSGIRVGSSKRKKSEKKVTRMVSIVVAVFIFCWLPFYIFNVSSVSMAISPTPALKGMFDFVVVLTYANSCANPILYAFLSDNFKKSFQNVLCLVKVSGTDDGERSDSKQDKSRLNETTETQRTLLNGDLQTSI

[4] = biological target: Somatostatin receptor type 3 (Homo sapiens, UniProt P32745)
Sequence of Somatostatin receptor type 3 (P32745 whole entry): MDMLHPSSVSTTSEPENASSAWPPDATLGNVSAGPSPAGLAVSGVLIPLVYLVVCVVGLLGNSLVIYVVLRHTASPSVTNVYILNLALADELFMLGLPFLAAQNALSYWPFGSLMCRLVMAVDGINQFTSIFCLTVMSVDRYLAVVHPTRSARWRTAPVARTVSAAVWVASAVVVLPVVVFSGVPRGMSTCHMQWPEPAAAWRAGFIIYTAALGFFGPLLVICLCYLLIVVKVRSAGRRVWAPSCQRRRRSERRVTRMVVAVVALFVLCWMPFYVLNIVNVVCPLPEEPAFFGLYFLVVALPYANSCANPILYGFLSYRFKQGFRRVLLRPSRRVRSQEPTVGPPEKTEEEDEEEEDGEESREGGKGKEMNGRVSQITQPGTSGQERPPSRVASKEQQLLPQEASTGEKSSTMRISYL

Sequence of Somatostatin receptor type 1 (P30872 whole entry): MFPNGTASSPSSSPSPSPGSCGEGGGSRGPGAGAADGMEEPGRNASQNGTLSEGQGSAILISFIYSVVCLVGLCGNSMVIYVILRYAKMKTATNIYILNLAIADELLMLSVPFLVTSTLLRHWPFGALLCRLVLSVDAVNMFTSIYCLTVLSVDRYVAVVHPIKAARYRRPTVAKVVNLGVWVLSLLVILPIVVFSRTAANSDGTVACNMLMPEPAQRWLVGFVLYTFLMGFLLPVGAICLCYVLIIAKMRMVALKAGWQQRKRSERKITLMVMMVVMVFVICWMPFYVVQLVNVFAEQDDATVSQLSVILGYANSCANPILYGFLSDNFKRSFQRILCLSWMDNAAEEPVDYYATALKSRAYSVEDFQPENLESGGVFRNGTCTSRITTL

Ki [1] [nM]	Ki [2] [nM]	Ki [3] [nM]	Ki [4] [nM]	Structure (SMILES)
0.41	0.03	0.18	0.16	CC(C)C[C@H](NC(=O)[C@H](C)NC(=O)[C@@H]1CCCN1C(=O)[C@H](CC(N)=O)NC(=O)[C@H](CO)NC(=O)[C@H](CC(N)=O)NC(=O)[C@H](C)NC(=O)[C@@H](N)CO)C(=O)N[C@@H](C)C(=O)N1CCC[C@H]1C(=O)N[C@@H](CCCN=C(N)N)C(=O)N[C@@H](CCC(=O)O)C(=O)N[C@@H](CCCN=C(N)N)C(=O)N[C@@H](CCCCN)C(=O)N[C@@H](C)C(=O)NCC(=O)N[C@H]1CSSC[C@@H](C(=O)O)NC(=O)[C@H](CO)NC(=O)[C@H]([C@@H](C)O)NC(=O)[C@H](Cc2ccc(O)cc2)NC(=O)[C@H]([C@@H](C)O)NC(=O)[C@H](CCCCN)NC(=O)[C@@H](Cc2c[nH]c3ccccc23)NC(=O)[C@H](Cc2ccccc2)NC(=O)[C@H](Cc2ccccc2)NC(=O)[C@H](CC(N)=O)NC(=O)[C@H](CCCCN)NC1=O [Leu8, D-Trp22, Tyr25 SST-28] (H-SANSNPALAPRERKAGCKNFF[dW]KTYTSC-OH; disulfide 17-28)
37.4	195	4.4	8.9	NCCCCC1NC(=O)C(Cc2c[nH]c3ccccc23)NC(=O)C(Cc2ccc(O)cc2)NC(=O)C(NC(=O)C(N)Cc2ccccc2)CSSCC(C(=O)NCc2cccc3ccccc23)NC(=O)C(CO)NC1=O (stereo not drawn) [NC4-28B] (H-FCYWKSC-{NH(1-naphthylmethyl)}; disulfide 2-7; configuration not given here)
